Data published in paper PMC11058275, “Targeted potent antimicrobial and antitumor oxygen-heterocyclic-based pyran analogues: synthesis and computational studies” (Scientific Reports, 2024).
Like-named read-outs stand apart in the source and are kept apart here.

Assays:
[1] = tested on: Bacillus cereus (ATCC 10987); assay: Agar diffusion antibacterial screening (inhibition zone); type: cell-based; conditions: ATCC10987, B. cereus, 1 mg/mL, Mueller–Hinton agar, read-out: Diameter of inhibition zone
Experimental: (§1) The antibacterial activity of β-enamionitriles (4a-q) was screened using Mueller–Hinton agar medium for bacteria in an agar diffusion methodology. Ciprofloxacin (1 mg/mL) was the reference antibiotic drug used in the analysis of collections that included four gram-positive species of multi drug resistant pathogenic bacteria: Staphylococcus aureus (MRSA) (ATCC 6539), Staphylococcus aureus (ATCC 6538), Bacillus cereus (ATCC 10987), Bacillus subtilis (ATCC 6633), and two gram-negative species of multi drug resistant pathogenic bacteria Klebsiella pneumonia (ATCC 13883) and Escherichia coli (ATCC 8739). […] Using a 1 mg/mL concentration of compounds (4a-q), the minimum zone of inhibition (IZ, the area around the antimicrobial agent where bacterial growth is prevented) was established in mm ± standard deviation beyond the well diameter (6 mm). […] The synthetic compound's inhibitory effects on evaluation against these organisms are depicted in Fig. 9 and Table 1.
(§2) Compound 4a-q was screened for its in vitro antimicrobial activities against pathogenic bacteria species using the standard antibiotics Ampicillin, Gentamycin and Ketoconazole as reference drugs as reported previously. The minimum inhibitory concentration (MIC) was determined as previously reported. The antimicrobial activities were performed at the Regional Centre for Mycology & Biotechnology (RCMP), Al-Azhar University.

[2] = tested on: Bacillus subtilis (ATCC 6633); assay: as above; type: cell-based; conditions: ATCC6633, B. subtilis, 1 mg/mL, Mueller–Hinton agar, read-out: Diameter of inhibition zone
Experimental: as §1, §2

[3] = tested on: Escherichia coli (ATCC 8739); assay: as above; type: cell-based; conditions: ATCC8739, E. coli, 1 mg/mL, Mueller–Hinton agar, read-out: Diameter of inhibition zone
Experimental: as §1, §2

[4] = tested on: Klebsiella pneumonia (ATCC 13883); assay: as above; type: cell-based; conditions: Klebsiella pneumoniae, ATCC13883, K. pneumonia, 1 mg/mL, Mueller–Hinton agar, read-out: Diameter of inhibition zone
Experimental: as §1, §2

[5] = tested on: Staphylococcus aureus (ATCC 6538); assay: as above; type: cell-based; conditions: ATCC6538, S. aureus, 1 mg/mL, Mueller–Hinton agar, read-out: Diameter of inhibition zone
Experimental: as §1, §2

[6] = tested on: Staphylococcus aureus (MRSA) (ATCC 6539); assay: as above; type: cell-based; conditions: read-out: Diameter of inhibition zone
Experimental: as §1, §2

[7] = tested on: HCT-116 (human colon cancer); assay: MTT cytotoxicity assay; type: cell-based
Text: (§3) The antiproliferative activity of the newly synthesized 1H-benzo[f]chromenes derivatives (4a-q) was examined in three human cancer cell lines: MCF-7 (breast cancer), HCT-116 (human colon cancer), and HepG-2 (hepatocellular carcinoma), as well as the two normal cell lines, HFL-1 (human foetal lung) and WI-38 (human diploid fibroblasts), using the 3-(4,5-dimethylthiazol-2-yl)-2,5-diphenyl tetrazolium bromide (MTT) colorimetric assay[56].
(§4) Compounds 4a-q was initially evaluated for in vitro antitumor activity against three different human cell lines: MCF-7, HCT-116 and HepG-2. In-vitro cytotoxicity evaluation was performed at the Regional Center for Mycology & Biotechnology (RCMP), Al-Azhar University under different concentrations (50, 25, 12.5, 6.25, 3.125, 1.56 and 0 µg/mL); vinblastine and doxorubicin are used as reference cytotoxic compounds.

[8] = tested on: HepG-2 (hepatocellular carcinoma); assay: MTT cytotoxicity assay; type: cell-based; conditions: Homo sapiens
Text: as §3, §4

[9] = tested on: HFL-1 (human foetal lung); assay: MTT cytotoxicity assay, normal cells; type: cell-based; conditions: read-out: IC50 Normotoxicity HFL-1
Text: as §3, §4

[10] = tested on: WI-38 (human diploid fibroblasts); assay: MTT cytotoxicity assay, normal cells; type: cell-based; conditions: read-out: IC50 Normotoxicity WI-38
Text: as §3, §4

MCF-7 (breast cancer) = assay: MTT cytotoxicity assay; conditions: Homo sapiens
Text: as §3, §4

[11] = MTT, 24-h incubation, mean ± standard error, read-out: IC50 Cancerotoxicity HCT-116
[12] = HepG2, MTT, 24-h incubation, mean ± standard error, read-out: IC50 Cancerotoxicity HepG-2
[13] = HFL1, HFL-1 normal cells, MTT, 24-h incubation, mean ± standard error
[14] = WI-38 normal cells, MTT, 24-h incubation, mean ± standard error
[15] = MCF7, 24 h, read-out: IC50 Cancerotoxicity MCF-7
[16] = given in µg/mL, read-out: IC50 HCT-116
[17] = HepG2, given in µg/mL, read-out: IC50 HepG-2

Row | SMILES | melting point [°C] | zone of inhibition at 1000 µg/mL [1] [mm] | zone of inhibition at 1000 µg/mL [2] [mm] | zone of inhibition at 1000 µg/mL [3] [mm] | zone of inhibition at 1000 µg/mL [4] [mm] | zone of inhibition at 1000 µg/mL [5] [mm] | zone of inhibition at 1000 µg/mL [6] [mm] | IC50 [7, 11] [µM] | IC50 [8, 12] [µM] | IC50 [9, 13] [µM] | IC50 [10, 14] [µM] | IC50 (MCF-7 (breast cancer); [15]) [µM] | IC50 [7, 16] [µg/mL] | IC50 [8, 17] [µg/mL] | IC50 (MCF-7 (breast cancer); MCF7, read-out: IC50 MCF-7) [µg/mL] | IC50 ([9]; HFL1, 24 h) [µM] | IC50 ([10]; WI-38, 24 h) [µM]
1 | N#CC(C#N)=Cc1ccc(Cl)cc1 | 162 to 163 | – | – | – | – | – | – | – | – | – | – | – | – | – | – | – | –
2 | O=C(O)c1cn(C2CC2)c2cc(N3CCNCC3)c(F)cc2c1=O [Ciprofloxacin, reference compound] | – | 22 | 0 | 25 | 0 | 0 | 0 | – | – | – | – | – | – | – | – | – | –
3 | COc1ccc2c3c(ccc2c1)OC(N)=C(C#N)C3c1ccccc1Cl (stereo not shown) [Compound 4b, 3-Amino-1-(2-chlorophenyl)-8-methoxy-1H-benzo[f]chromene-2-carbonitrile] | 265 to 266 | 14 | 0 | 12 | 13 | 0 | 13 | 8.6 ± 0.25 | 6.1 ± 0.2 | 198.6 ± 0.1 | 171 ± 0.2 | 3.9 ± 0.18 | – | – | – | – | –
4 | COc1ccc2c3c(ccc2c1)OC(N)=C(C#N)C3c1cccc(Cl)c1 (stereo not shown) [Compound 4c, 3-Amino-1-(3-chlorophenyl)-8-methoxy-1H-benzo[f]chromene-2-carbonitrile] | 216 to 217 | 17 | 0 | 12 | 13 | 0 | 15 | 5.5 ± 0.35 | 3.3 ± 0.5 | 187.6 ± 0.2 | 214.1 ± 0.1 | 3.6 ± 0.14 | – | – | – | – | –
5 | COc1ccc2c3c(ccc2c1)OC(N)=C(C#N)C3c1ccc(I)cc1 (stereo not shown) [Compound 4f, 3-Amino-1-(4-iodophenyl)-8-methoxy-1H-benzo[f]chromene-2-carbonitrile] | 227 to 228 | 15 | 8 | 0 | 9 | 0 | 12 | 27.8 ± 0.3 | 39.2 ± 0.2 | – | – | 48.5 ± 0.1 | – | – | – | – | –
6 | COc1ccc2c3c(ccc2c1)OC(N)=C(C#N)C3c1c(F)cccc1F (stereo not shown) [Compound 4h, 3-Amino-1-(2,6-difluorophenyl)-8-methoxy-1H-benzo[f]chromene-2-carbonitrile] | 295 to 296 | 9 | 0 | 0 | 10 | 9 | 13 | 33.8 ± 0.12 | 48.1 ± 0.2 | – | – | 60.2 ± 0.3 | – | – | – | – | –
7 | COc1ccc2c3c(ccc2c1)OC(N)=C(C#N)C3c1cccc(Cl)c1Cl (stereo not shown) [Compound 4i, 3-Amino-1-(2,3-dichlorophenyl)-8-methoxy-1H-benzo[f]chromene-2-carbonitrile] | 256 to 257 | 8 | 0 | 0 | 14 | 0 | 13 | 3.5 ± 0.15 | 2.8 ± 0.17 | 154.5 ± 0.1 | 160.1 ± 0.2 | 2.3 ± 0.01 | 1.4 ± 0.15 | 11.1 ± 0.17 | 0.9 ± 0.01 | – | –
8 | COc1ccc2c3c(ccc2c1)OC(N)=C(C#N)C3c1ccc(Cl)cc1Cl (stereo not shown) [Compound 4j, 3-Amino-1-(2,4-dichlorophenyl)-8-methoxy-1H-benzo[f]chromene-2-carbonitrile] | 285 to 286 | 8 | 0 | 12 | 14 | 0 | 13 | 5.8 ± 0.16 | 14.1 ± 0.18 | 180.8 ± 0.3 | 177.8 ± 0.3 | 2 ± 0.02 | – | – | – | – | –
9 | COc1ccc2c3c(ccc2c1)OC(N)=C(C#N)C3c1cc(Cl)ccc1Cl (stereo not shown) [Compound 4k, 3-Amino-1-(2,5-dichlorophenyl)-8-methoxy-1H-benzo[f]chromene-2-carbonitrile] | 270 to 271 | 0 | 0 | 13 | 15 | 0 | 12 | 2.5 ± 0.23 | 1.8 ± 0.03 | – | – | 6.6 ± 0.4 | – | – | – | – | –
10 | COc1ccc2c3c(ccc2c1)OC(N)=C(C#N)C3c1c(Cl)cccc1Cl (stereo not shown) [Compound 4l] | 313 to 314 | 8 | 0 | 0 | 14 | 0 | 13 | 21.3 ± 0.01 | 2.3 ± 0.02 | – | – | 12.1 ± 0.06 | – | – | – | – | –
11 | COc1ccc2c3c(ccc2c1)OC(N)=C(C#N)C3c1ccc(Cl)c(Cl)c1 (stereo not shown) [Compound 4m, 3-Amino-1-(3,4-dichlorophenyl)-8-methoxy-1H-benzo[f]chromene-2-carbonitrile] | 241 to 242 | 13 | 0 | 10 | 13 | 0 | 14 | 2.3 ± 0.97 | 1.8 ± 0.06 | 181 ± 0.1 | 175.5 ± 0.2 | 1.3 ± 0.21 | 0.9 ± 0.97 | 0.7 ± 0.06 | 0.5 ± 0.21 | – | –
12 | COc1ccc2c3c(ccc2c1)OC(N)=C(C#N)C3c1ccc(OC)c(OC)c1OC (stereo not shown) [Compound 4o, 3-amino-1-(2,3,4-trimethoxyphenyl)-8-methoxy-1H-benzo[f]chromene-2-carbonitrile] | 240 to 241 | 14 | 0 | 12 | 11 | 10 | 12 | 35.9 ± 0.02 | 17.6 ± 0.05 | – | – | 55.3 ± 0.01 | – | – | – | – | –
13 | COc1ccc2c3c(ccc2c1)OC(N)=C(C#N)C3c1cc(OC)c(OC)c(OC)c1 (stereo not shown) [Compound 4p, 3-amino-1-(3,4,5-trimethoxyphenyl)-8-methoxy-1H-benzo[f]chromene-2-carbonitrile] | 258 to 259 | 15 | 0 | 11 | 12 | 11 | 13 | 91.4 ± 0.01 | 106.5 ± 0.1 | – | – | 114.4 ± 0.03 | – | – | – | – | –
14 | COc1ccc2c3c(ccc2c1)OC(N)=C(C#N)C3c1cc(Cl)cc(Cl)c1Cl (stereo not shown) [Compound 4q, 3-amino-1-(2,3,5-trichlorophenyl)-8-methoxy-1H-benzo[f]chromene-2-carbonitrile] | 259 to 260 | 13 | 10 | 12 | 13 | 10 | 13 | 107 ± 1.6 | 76.5 ± 0.9 | – | – | 110.4 ± 0.1 | – | – | – | – | –
15 | C#Cc1cccc(Nc2ncnc3cc(OCCOC)c(OCCOC)cc23)c1 [Erlotinib, N-(3-ethynylphenyl)-6,7-bis(2-methoxyethoxy)-4-quinazolinamine, reference compound] | – | – | – | – | – | – | – | – | – | – | – | – | – | – | – | 14 ± 1.2 | 28.5 ± 0.2
